Experimental data taken from US20250282820A1, “PEPTIDE COMPLEX HAVING TRKB BINDING ACTIVITY” (PEPTIDREAM INC, priority 2022, published 2025).
*1 amine or outer side, *2 acyl side, *3 side chain or, on linkers, in order; H or OH if unused. Where a SMILES comes first, the peptide text is derived from it. Bridges are numbered along the chain shown (N, C = ends). Roman numbers before positions name the chains, in order. [ ]: non-standard residue; d: D form. CO(CH2CH2O)13CH2CH2CO = O=C(CCOCCOCCOCCOCCOCCOCCOCCOCCOCCOCCOCCOCCOCCC(=O)[*:2])[*:1]; 3Pal = N[C@@H](Cc1cccnc1)C(=O)O

Legend:
[1] = molecular target: T1, TrkB (CellSensor TrkB-NFAT-bla CHO-K1 Cell) (Homo sapiens, UniProt Q16620); assay: NFAT transcriptional reporter assay for TrkB agonist activity; assay type: cell-based; conditions: class = peptide concentration giving 50% or more activity; BDNF maximum signal = 100%, no stimulation = 0%; 5 hours culture
T1 construct: host or cells: CHO-K1 (CellSensor TrkB-NFAT-bla CHO-K1)
T1 sequence (Q16620 32-822): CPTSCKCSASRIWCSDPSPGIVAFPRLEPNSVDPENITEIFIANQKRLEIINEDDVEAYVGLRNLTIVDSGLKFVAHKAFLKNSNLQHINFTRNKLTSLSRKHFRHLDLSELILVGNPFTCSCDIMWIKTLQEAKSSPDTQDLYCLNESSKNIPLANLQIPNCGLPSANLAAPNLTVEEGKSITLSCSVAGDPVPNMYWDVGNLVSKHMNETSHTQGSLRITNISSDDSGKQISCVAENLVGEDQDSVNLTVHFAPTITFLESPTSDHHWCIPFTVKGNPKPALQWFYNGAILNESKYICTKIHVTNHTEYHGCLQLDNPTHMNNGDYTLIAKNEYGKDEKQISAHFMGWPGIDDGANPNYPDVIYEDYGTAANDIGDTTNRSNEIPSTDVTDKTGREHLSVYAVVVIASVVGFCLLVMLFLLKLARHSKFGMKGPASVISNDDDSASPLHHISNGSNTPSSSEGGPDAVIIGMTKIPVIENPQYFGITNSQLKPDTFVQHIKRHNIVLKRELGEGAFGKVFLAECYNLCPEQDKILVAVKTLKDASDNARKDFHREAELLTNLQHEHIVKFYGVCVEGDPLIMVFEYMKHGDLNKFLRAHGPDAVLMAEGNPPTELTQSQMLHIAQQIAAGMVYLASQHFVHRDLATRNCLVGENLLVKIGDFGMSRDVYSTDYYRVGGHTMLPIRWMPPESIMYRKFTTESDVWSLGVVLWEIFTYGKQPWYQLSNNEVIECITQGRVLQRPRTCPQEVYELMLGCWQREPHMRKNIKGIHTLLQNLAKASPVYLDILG
Method in brief: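 CHO-K1 TrkB-NFAT-bla cells, 12,500 per well, treated overnight-seeded with peptide or BDNF for 5 h, then CCF4-AM substrate 2 h in the dark; 460/535 nm emission ratio. Activity scaled to maximal BDNF signal (100%) and unstimulated (0%); grades A/B/C mean ≥50% activity at 1, 10 or 100 nM.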

[2] = molecular target: T2, Recombinant Human TrkA Fc Chimera Protein (Homo sapiens, UniProt P04629); assay: Surface plasmon resonance (SPR), Biacore T200, single cycle kinetics; assay type: binding; conditions: FIG. 4
T2 construct: purchased R&D Systems
T2 sequence (P04629 with tags, fused parts or gaps limits assumed): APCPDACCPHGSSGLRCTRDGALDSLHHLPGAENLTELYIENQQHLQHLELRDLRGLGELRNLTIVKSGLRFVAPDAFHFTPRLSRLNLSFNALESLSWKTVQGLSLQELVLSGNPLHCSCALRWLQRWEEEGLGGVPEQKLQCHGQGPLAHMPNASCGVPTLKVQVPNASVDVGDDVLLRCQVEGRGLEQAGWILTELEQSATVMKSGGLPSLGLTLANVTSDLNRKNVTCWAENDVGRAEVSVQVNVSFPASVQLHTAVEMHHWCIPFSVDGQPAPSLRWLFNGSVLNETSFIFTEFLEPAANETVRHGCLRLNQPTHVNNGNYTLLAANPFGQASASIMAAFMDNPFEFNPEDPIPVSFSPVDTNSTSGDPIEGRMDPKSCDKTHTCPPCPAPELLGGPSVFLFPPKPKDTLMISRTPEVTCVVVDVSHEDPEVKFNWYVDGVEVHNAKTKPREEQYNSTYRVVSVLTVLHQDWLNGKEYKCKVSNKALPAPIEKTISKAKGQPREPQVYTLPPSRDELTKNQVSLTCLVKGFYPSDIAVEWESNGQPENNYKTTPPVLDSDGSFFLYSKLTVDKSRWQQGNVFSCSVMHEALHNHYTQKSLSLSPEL
Experimental: (§1) A CM3 sensor chip (Cytiva) was inserted into a Biacore T200 (Cytiva). Three priming runs were performed using running buffer: HBS-EP+ (Cytiva). The system was then equilibrated at a flow rate of 30 μL/min. After mixing in 50 μL each of a 60 mM EDC solution (Cytiva) and 650 mM NHS solution (Cytiva), the reaction was performed at a flow rate of 10 μL/min for 420 seconds. Then, 135 μL of a 30 ng/μL anti-human IgG (Fc) antibody (Cytiva) solution was prepared by dilution with a 10 mM acetic acid solution (pH 5.0), and the anti-human IgG (Fc) antibody was immobilized on the CM3 sensor chip by reacting it at a flow rate of 10 μL/min for 360 seconds. After immobilization, capping was performed by reacting it with a 1.0M ethanolamine solution (Cytiva) at a flow rate of 10 μL/min for 420 seconds. Each 200 nM Recombinant Human TrkA Fc Chimera Protein, Recombinant Human TrkB Fc Chimera Protein, Recombinant Human TrkC Fc Chimera Protein (R&D Systems) solution was reacted with the immobilized antibody at a flow rate of 10 μL/min for 60 seconds. A liquid prepared by dissolving each peptide at 10 mM in DMSO solution was diluted with running buffer to prepare a peptide-dissolved solution at a final concentration of 10 μM. Subsequently, 50 nM, 25 nM, 12.5 nM, 5 nM, and 2.5 nM peptide solutions were prepared. Using the samples described above, the kinetics of peptide against TrkA, TrkB, and TrkC were obtained by SPR measurements. After reacting a peptide with TrkA, TrkB, and TrkC, regeneration was performed using a reaction with a 3M MgCl solution at 10 μL/min for 180 seconds.
(§2) The kinetic evaluation model was Single Cycle Kinetics, and curve fitting was performed using Biacore T200 Evaluation Software Version 3.0 (Cytiva). The binding of peptides to TrkA, TrkB, and TrkC was evaluated by performing least-squares curve fitting on the obtained sensorgrams and calculating their Kd values (dissociation constants).

[3] = molecular target: T3, Recombinant Human TrkB Fc Chimera Protein (Homo sapiens, UniProt Q16620); assay: as above; assay type: binding; conditions: for Kd: calculated by employing the lower theoretical limit of 0.00001 (1/s) for koff, read-out: Kd (dissociation constant) of binding to TrkB
T3 construct: purchased R&D Systems
Experimental: as §1, §2

[4] = molecular target: T4, Recombinant Human TrkC Fc Chimera Protein (Homo sapiens, UniProt Q16288); assay: as above; assay type: binding; conditions: FIG. 4
T4 construct: purchased R&D Systems
T4 sequence (Q16288 with tags, fused parts or gaps limits assumed): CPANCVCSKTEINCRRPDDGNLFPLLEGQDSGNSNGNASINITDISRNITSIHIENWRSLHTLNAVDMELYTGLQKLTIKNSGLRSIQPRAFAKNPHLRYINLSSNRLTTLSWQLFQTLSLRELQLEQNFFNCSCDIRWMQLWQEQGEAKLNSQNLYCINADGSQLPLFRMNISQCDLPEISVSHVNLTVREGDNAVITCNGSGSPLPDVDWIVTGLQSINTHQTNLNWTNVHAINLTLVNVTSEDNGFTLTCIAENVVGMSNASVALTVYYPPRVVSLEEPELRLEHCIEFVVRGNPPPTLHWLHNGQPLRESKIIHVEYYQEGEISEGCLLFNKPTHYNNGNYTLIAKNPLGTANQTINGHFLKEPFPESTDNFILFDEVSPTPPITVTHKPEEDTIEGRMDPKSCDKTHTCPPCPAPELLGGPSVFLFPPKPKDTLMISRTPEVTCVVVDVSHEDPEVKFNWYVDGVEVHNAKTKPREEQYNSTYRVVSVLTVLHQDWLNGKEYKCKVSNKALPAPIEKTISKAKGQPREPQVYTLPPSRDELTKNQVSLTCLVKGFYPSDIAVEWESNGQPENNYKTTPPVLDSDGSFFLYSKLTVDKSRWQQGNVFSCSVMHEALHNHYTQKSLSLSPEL
Experimental: as §1, §2

| SMILES | NFAT Assay Results [1] | binding to TrkA [2] | koff (dissociation rate constant) of binding to TrkB [3] | Kd [3] | binding to TrkC [4] |
| --- | --- | --- | --- | --- | --- |
| CC(C)[C@@H]1NC(=O)[C@H](Cc2cccnc2)NC(=O)[C@H](CCC(=O)O)NC(=O)[C@H](CO)NC(=O)[C@H](Cc2ccc(O)cc2)NC(=O)[C@H]([C@@H](C)O)NC(=O)[C@@H]2CCCN2C(=O)[C@H](Cc2c[nH]c3ccccc23)NC(=O)[C@H](Cc2cccnc2)NC(=O)[C@H](Cc2ccc(O)cc2)NC(=O)[C@@H]2CCCN2C(=O)[C@H](CO)NC(=O)[C@H](Cc2ccccc2)NC(=O)CSC[C@@H](C(=O)NCC(=O)N[C@@H](CCCCNC(=O)CCOCCOCCOCCOCCOCCOCCOCCOCCOCCOCCOCCOCCOCCC(=O)NCCCC[C@H](NC(=O)CNC(=O)[C@@H]2CSCC(=O)N[C@@H](Cc3ccccc3)C(=O)N[C@@H](CO)C(=O)N3CCC[C@H]3C(=O)N[C@@H](Cc3ccc(O)cc3)C(=O)N[C@@H](Cc3cccnc3)C(=O)N[C@@H](Cc3c[nH]c4ccccc34)C(=O)N3CCC[C@H]3C(=O)N[C@@H]([C@@H](C)O)C(=O)N[C@@H](Cc3ccc(O)cc3)C(=O)N[C@@H](CO)C(=O)N[C@@H](CCC(=O)O)C(=O)N[C@@H](Cc3cccnc3)C(=O)N[C@@H](C(C)C)C(=O)N[C@@H](CCC(=O)O)C(=O)N2)C(N)=O)C(N)=O)NC(=O)[C@H](CCC(=O)O)NC1=O [compound 48] (I: {CH2CO}-FSPY[3Pal]WPTYSE[3Pal]VECGK-NH2 / II: {CH2CO}-FSPY[3Pal]WPTYSE[3Pal]VECGK-NH2; linker I:17-II:17 via CO(CH2CH2O)13CH2CH2CO; thioether I:N-I:15, II:N-II:15) | A (The peptide with 50% or more activity when 1 nM of the peptide was added was evaluated as A) | no binding | exceeded the measurement limit | ≤ 0.1 nM | no binding |
| CC(C)[C@@H]1NC(=O)[C@H](Cc2cccnc2)NC(=O)[C@H](CCC(=O)O)NC(=O)[C@H](CO)NC(=O)[C@H](Cc2ccc(O)cc2)NC(=O)[C@H]([C@@H](C)O)NC(=O)[C@@H]2CCCN2C(=O)[C@H](Cc2c[nH]c3ccccc23)NC(=O)[C@H](Cc2cccnc2)NC(=O)[C@H](Cc2ccc(O)cc2)NC(=O)[C@@H]2CCCN2C(=O)[C@H](CCC(=O)O)NC(=O)[C@H](Cc2ccccc2)NC(=O)CSC[C@@H](C(=O)NCC(=O)N[C@@H](CCCCNC(=O)CCOCCOCCOCCOCCOCCOCCOCCOCCOCCOCCOCCOCCOCCC(=O)NCCCC[C@H](NC(=O)CNC(=O)[C@@H]2CSCC(=O)N[C@@H](Cc3ccccc3)C(=O)N[C@@H](CCC(=O)O)C(=O)N3CCC[C@H]3C(=O)N[C@@H](Cc3ccc(O)cc3)C(=O)N[C@@H](Cc3cccnc3)C(=O)N[C@@H](Cc3c[nH]c4ccccc34)C(=O)N3CCC[C@H]3C(=O)N[C@@H]([C@@H](C)O)C(=O)N[C@@H](Cc3ccc(O)cc3)C(=O)N[C@@H](CO)C(=O)N[C@@H](CCC(=O)O)C(=O)N[C@@H](Cc3cccnc3)C(=O)N[C@@H](C(C)C)C(=O)N[C@@H](CCC(=O)O)C(=O)N2)C(N)=O)C(N)=O)NC(=O)[C@H](CCC(=O)O)NC1=O [compound 56] (I: {CH2CO}-FEPY[3Pal]WPTYSE[3Pal]VECGK-NH2 / II: {CH2CO}-FEPY[3Pal]WPTYSE[3Pal]VECGK-NH2; linker I:17-II:17 via CO(CH2CH2O)13CH2CH2CO; thioether I:N-I:15, II:N-II:15) | A (The peptide with 50% or more activity when 1 nM of the peptide was added was evaluated as A) | no binding | exceeded the measurement limit | ≤ 0.1 nM | no binding |
